Measurements: PMC12494831, “Discovery of new pyridine 3-carboxylic acid-based pharmacophores as dual anti-inflammatory and anti-hyperglycemic agents” (Scientific Reports, 2025)

Experiments:
[1] = target: T1, α-amylase (EC.3.2.1.1) (Homo sapiens, UniProt P04746); assay: In vitro α-amylase inhibition (starch/DNS, 540 nm); type: biochemical; conditions: for IC50: test concentrations 2-10 µg, read-out: α-Amylase IC50±SD (converted)
T1 sequence (P04746 16-511): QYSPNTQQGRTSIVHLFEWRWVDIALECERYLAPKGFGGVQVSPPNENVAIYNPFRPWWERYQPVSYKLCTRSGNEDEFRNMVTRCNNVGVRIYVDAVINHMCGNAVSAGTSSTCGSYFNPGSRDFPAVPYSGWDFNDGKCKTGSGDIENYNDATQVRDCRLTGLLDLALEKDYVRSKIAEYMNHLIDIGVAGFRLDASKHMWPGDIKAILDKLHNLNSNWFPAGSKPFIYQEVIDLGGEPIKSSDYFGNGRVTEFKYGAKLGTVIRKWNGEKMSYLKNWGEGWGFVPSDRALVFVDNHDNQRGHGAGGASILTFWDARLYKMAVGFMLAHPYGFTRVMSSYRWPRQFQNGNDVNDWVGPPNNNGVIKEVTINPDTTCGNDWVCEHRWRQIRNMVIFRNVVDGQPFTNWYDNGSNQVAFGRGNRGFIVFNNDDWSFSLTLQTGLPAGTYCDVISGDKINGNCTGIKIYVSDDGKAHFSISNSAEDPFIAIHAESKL
Experimental: α-Amylase enzyme and other chemical reagents are used for enzyme inhibitory activity. The characterized compounds are diluted in an analytical grad solvent (DMSO) system at 1 mg/mL solution concentration. The activity reaction of the synthesized analogues on the enzyme was treated at final concentrations of 2 to 10 µg. In the interaction between enzyme and compounds, 10 min incubation was maintained before the inhibitory activity started. The enzyme-receptor inhibition efficiency was calculated and compared with the positive control.
Sodium phosphate buffer 0.2 mM (pH 6.9 with 6 × 10^− 4 M NaCl) in 500 µL enzyme solution (0.5 mg/mL) was taken and incubated with test samples (2–10 µg/mL) at room temperature for 10 min. A starch (1%) solution of 500 µL with phosphate buffer was added to all test inhibitor samples; further, the tubes were incubated for 10 min at 28 °C. The reaction test tubes were incubated for another 5 min in the water bath (100 °C) after the addition of the color reagent dinitro salicylic acid and cooled at room temperature until reached. Finally, 10 mL of distilled water was mixed with each test tube, and the colored mixture was measured at a fixed wavelength of 540 nm. The absorbance without sample solution (blank) and control (buffer and standard drug sample) was measured at 540 nm. The α-amylase inhibition efficiency was validated using the following equation:2 [drawing 2]

[2] = ABTS cation radical scavenging (734 nm); conditions: for IC50: read-out: ABTS IC50±SD
Experimental: (§1) The experimental method principle relies on the degradation of the purple color of the DPPH radical and the blue color reduction of the ABTS cation radical. This is due to consuming the electron or hydrogen radical from the antioxidant (A-H). Both assays were measured at 517 nm and 734 nm, respectively. The distinction of color changes illustrates the potential scavenging activity of the inhibitor molecules in terms of hydrogen-donating proficiency. From this, we can conclude the anti-oxidant efficacy.
In brief, 7.0 mM ABTS in H2O and 2.5 mM potassium persulfate (1:1) were shaken well to generate ABTS cation radicals and kept in the dark at RT for 15–20 h before it is used for the experiment. After, the radical was mixed with the synthesized molecules at different concentrations (20 µM to 100 µM). The resultant solution was measured for absorbance at 734 nm. Ascorbic acid is the positive control for this experiment.1 [drawing 1]

[3] = DPPH radical scavenging (517 nm); conditions: for IC50: read-out: DPPH IC50±SD
Experimental: as §1
Methanolic DPPH solution (0.15 mM) was prepared, and 1.0 mL of DPPH solution was mixed with 3.0 mL of synthesized molecules at different concentrations (20 µM to 100 µM). The mixture was constantly swirled and stored RT for 30 min, followed by absorbance measurement at 517 nm.

[4] = test system: human RBC; assay: Anti-inflammatory activity: hypotonic solution-induced human RBC hemolysis (560 nm); type: cell-based; conditions: for IC50: induced human RBC hemolysis, read-out: Inflammatory IC50±SD
Experimental: All synthesized compounds are validated in human RBC (blood sample); the blood sample was collected from a healthy volunteer in an EDTA tube. The EDTA tube further proceeded with centrifugation at 3000 rpm for 30 min. A supernatant (which contains plasma and leucocytes) solution was isolated, and the obtained RBC (red blood cells) was further treated with Alsever’s reagent. Alsever’s reagent was prepared as follows: sodium citrate (0.8 g, 2.6 mmol), dextrose (2 g, 11.0 mmol), citric acid (0.050 g, […]), and sodium chloride (0.42 g, 7.0 mmol) were solubilized in 100 mL of distilled water. The above mixture was centrifuged for 30 min at 3000 rpm. Then, colloidal blood cells were separated, carefully transferred, and washed with 0.85% of the isosaline solution; this process continued until a clear solution appeared. Employing coagulated RBC and generated human erythrocyte hemolysis, the anti-inflammatory activity and potential of the synthesized entities were evaluated. The tested compounds are prepared at different concentrations for the inhibition activity of inflammation, along with 100 µL of a purified RBC sample utilized. All characterized samples were followed by adding 5.0 mL of trisodium phosphate (10 mM) and 5.0 mL of sodium chloride (5.0 mM) buffer solutions. After the addition of the above mixtures, the test samples are incubated for 15 min at room temperature with RBC and hypotonic mixtures. After incubation, the mixture was centrifuged at 3000 rpm for 15 min. The final supernatant liquid solution was measured at 560 nm using a UV-visible spectrophotometer.3 [drawing 3]

| SMILES | α-Amylase Inhibition % ([1]; 2 µg) [%] | α-Amylase Inhibition % ([1]; 4 µg) [%] | IC50 [2] [µM] | IC50 [3] [µM] | ABTS Inhibition % ([2]; 20 µM) [%] | ABTS Inhibition % ([2]; 40 µM) [%] | ABTS Inhibition % ([2]; 60 µM) [%] | ABTS Inhibition % ([2]; 80 µM) [%] | ABTS Inhibition % ([2]; 100 µM) [%] | DPPH Inhibition % ([3]; 20 µM) [%] | DPPH Inhibition % ([3]; 40 µM) [%] | DPPH Inhibition % ([3]; 60 µM) [%] | DPPH Inhibition % ([3]; 80 µM) [%] | DPPH Inhibition % ([3]; 100 µM) [%] | inhibition at 20 µM [4] [%] | inhibition at 40 µM [4] [%] | inhibition at 60 µM [4] [%] | inhibition at 80 µM [4] [%] | inhibition at 100 µM [4] [%] | IC50 [4] [µM] | further results |
| --- | --- | --- | --- | --- | --- | --- | --- | --- | --- | --- | --- | --- | --- | --- | --- | --- | --- | --- | --- | --- | --- |
| C[C@H]1O[C@H](O[C@H]2[C@H](O)[C@@H](O)[C@@H](O[C@H]3[C@H](O)[C@@H](O)C(O)O[C@@H]3CO)O[C@@H]2CO)[C@H](O)[C@@H](O)[C@@H]1N[C@H]1C=C(CO)[C@@H](O)[C@H](O)[C@H]1O (some centres unmarked) [Acarbose, reference compound] | 85.59 | 83.98 |  |  |  |  |  |  |  |  |  |  |  |  |  |  |  |  |  |  | α-Amylase Inhibition % ([1]; 6 µg): 82.19%; α-Amylase Inhibition % ([1]; 8 µg): 80.97%; α-Amylase Inhibition % ([1]; 10 µg): 80.38% |
| O=C1O[C@H]([C@@H](O)CO)C(O)=C1O [Ascorbic acid, reference compound] |  |  | 11.9 ± 0.01 | 11.81 ± 0.04 | 90 | 93 | 95 | 96 | 96.5 | 91 | 91.8 | 93.7 | 94.3 | 96.1 |  |  |  |  |  |  |  |
| O=C(c1ccccc1)c1ccc2n1CCC2C(=O)O (centres unmarked) [Ketorolac, reference compound] |  |  |  |  |  |  |  |  |  |  |  |  |  |  | 91 | 92 | 93 | 93.5 | 94 | 11.8 ± 0.17 |  |

Further lines, with some results ahead:

| α-Amylase Inhibition % ([1]; 2 µg) [%] | α-Amylase Inhibition % ([1]; 4 µg) [%] | IC50 [2] [µM] | IC50 [3] [µM] | SMILES | ABTS Inhibition % ([2]; 20 µM) [%] | ABTS Inhibition % ([2]; 40 µM) [%] | ABTS Inhibition % ([2]; 60 µM) [%] | ABTS Inhibition % ([2]; 80 µM) [%] | ABTS Inhibition % ([2]; 100 µM) [%] | DPPH Inhibition % ([3]; 20 µM) [%] | DPPH Inhibition % ([3]; 40 µM) [%] | DPPH Inhibition % ([3]; 60 µM) [%] | DPPH Inhibition % ([3]; 80 µM) [%] | DPPH Inhibition % ([3]; 100 µM) [%] | inhibition at 20 µM [4] [%] | inhibition at 40 µM [4] [%] | inhibition at 60 µM [4] [%] | inhibition at 80 µM [4] [%] | inhibition at 100 µM [4] [%] | IC50 [4] [µM] | further results |
| --- | --- | --- | --- | --- | --- | --- | --- | --- | --- | --- | --- | --- | --- | --- | --- | --- | --- | --- | --- | --- | --- |
|  |  | 21.57 ± 0.11 | 32.02 ± 0.26 | COC(=O)C=Cc1cc(OC)c(OC(=O)c2cccnc2)c(OC)c1 [Compound 2d, 2,6-dimethoxy-4-(3-methoxy-3-oxoprop-1-en-1-yl)phenyl nicotinate] | 56.9 | 59.6 | 62.5 | 62.6 | 63.2 | 36.2 | 56.3 | 80.5 | 87.4 | 88.3 | 59 | 62 | 65.4 | 75.2 | 84.4 | 20.2 ± 0.26 |  |
| 79.2 | 77.89 | 81.05 ± 0.22 | 78.05 ± 0.08 | COC(=O)C=Cc1cccc(OC(=O)c2cccnc2)c1 [Compound 2f, 3-(3-Methoxy-3-oxoprop-1-en-1-yl)-phenyl nicotinate] | 27.6 | 33.8 | 41.5 | 52 | 60.1 | 35.31 | 38.4 | 41.11 | 43.18 | 45.7 | 31 | 37 | 42 | 45.6 | 49 | 65.24 ± 0.18 | α-Amylase Inhibition % ([1]; 6 µg): 56.22%; α-Amylase Inhibition % ([1]; 8 µg): 47.87%; α-Amylase Inhibition % ([1]; 10 µg): 36.74%; IC50 [1]: 4.71 µM |
| 80.38 | 73.64 | 21.85 ± 0.21 | 81.81 ± 0.01 | COC(=O)C=Cc1ccccc1OC(=O)c1cccnc1 [Compound 2g, 2-(3-Methoxy-3-oxoprop-1-en-1-yl)phenyl nicotinate] | 56 | 57 | 58.1 | 60.2 | 62 | 34.94 | 44.35 | 46.41 | 50.02 | 61.07 | 79 | 80.2 | 80.3 | 85.6 | 86 | 85.56 ± 0.25 | α-Amylase Inhibition % ([1]; 6 µg): 73.06%; α-Amylase Inhibition % ([1]; 8 µg): 40.84%; α-Amylase Inhibition % ([1]; 10 µg): 29.72%; IC50 [1]: 4.79 µM |
| 74.08 | 73.2 | 16.4 ± 0.25 | 12.9 ± 0.19 | O=C(Oc1ccc2c(c1)OCO2)c1cccnc1 [Compound 2h, Benzo[1,3]dioxol-5-yl nicotinate] | 69 | 71 | 72 | 72.9 | 76.7 | 84.5 | 85.8 | 86.8 | 87.2 | 87.68 | 52 | 63 | 64.7 | 65 | 70 | 21.7 ± 0.24 | α-Amylase Inhibition % ([1]; 6 µg): 72.47%; α-Amylase Inhibition % ([1]; 8 µg): 70.57%; α-Amylase Inhibition % ([1]; 10 µg): 70.13%; IC50 [1]: 6.23 µM |
| 77.74 | 76.42 | 38.43 ± 0.21 | 99.62 ± 0.15 | COc1cc(C(C)=O)ccc1OC(=O)c1cccnc1 [Compound 2i, 4-Acetyl-2-methoxyphenyl nicotinate] | 41.6 | 44.7 | 49.5 | 53.9 | 60.4 | 8.89 | 33.34 | 40.65 | 49.83 | 52.22 | 17.6 | 25.3 | 47 | 58 | 70 | 66.97 ± 0.28 | α-Amylase Inhibition % ([1]; 6 µg): 74.67%; α-Amylase Inhibition % ([1]; 8 µg): 71.01%; α-Amylase Inhibition % ([1]; 10 µg): 70.86%; IC50 [1]: 5.25 µM |
| 85.94 | 75.4 | 57.25 ± 0.11 | 97.62 ± 0.24 | O=C(Nc1ccc2c(c1)OCO2)c1cccnc1 [Compound 2j, N-(Benzo[1,3]dioxol-5-yl)nicotinamide] | 28.3 | 39 | 42.4 | 45 | 47.9 | 34.8 | 37.7 | 43.7 | 46 | 50.1 | 59 | 68 | 75 | 92.7 | 93 | 20.3 ± 0.22 | α-Amylase Inhibition % ([1]; 6 µg): 74.67%; α-Amylase Inhibition % ([1]; 8 µg): 68.96%; α-Amylase Inhibition % ([1]; 10 µg): 57.1%; IC50 [1]: 5.47 µM |
